Experimental data taken from patent US20240279281A1, “Peptide Inhibitors of Interleukin-23 Receptor” (Janssen Pharmaceutica NV, priority 2023, published 2024).
pIC50: −log10 of the molar value. Read-outs that look alike come from different tables or passages of the source. Values belong to the molecule of their own block, whether it stands above or below them. Positions of bridges follow the written chain, without caps; N, C: chain ends. Non-standard residues stand in square brackets, D forms with d. Residues, ends and D or L forms follow the SMILES beside them. *: point of attachment. 2Nal(6-OH) = N[C@@H](Cc1ccc2cc(O)ccc2c1)C(=O)O; Trp(7-Me) = Cc1cccc2c(C[C@H](N)C(=O)O)c[nH]c12; 3Pal = N[C@@H](Cc1cccnc1)C(=O)O; Pen = CC(C)(S)[C@H](N)C(=O)O; Thp = NC1(C(=O)O)CCOCC1; X18 = C[N+](C)(C)CCCCC*; Sar = CNCC(=O)O

Key:
[1] = disulfide bond, 20-membered ring
[2] = molecular target: T1, IL-23-stimulated phosphorylated STAT3 in peripheral blood mononuclear cells (PBMCs) (Homo sapiens, UniProt Q5VWK5); assay: PBMC pSTAT3 Assay; type: cell-based; conditions: PBMCs from healthy donors, IL-23 5 ng/mL, 30 minutes, read-out: PBMC pSTAT3 IC50
T1 sequence (Q5VWK5 24-629): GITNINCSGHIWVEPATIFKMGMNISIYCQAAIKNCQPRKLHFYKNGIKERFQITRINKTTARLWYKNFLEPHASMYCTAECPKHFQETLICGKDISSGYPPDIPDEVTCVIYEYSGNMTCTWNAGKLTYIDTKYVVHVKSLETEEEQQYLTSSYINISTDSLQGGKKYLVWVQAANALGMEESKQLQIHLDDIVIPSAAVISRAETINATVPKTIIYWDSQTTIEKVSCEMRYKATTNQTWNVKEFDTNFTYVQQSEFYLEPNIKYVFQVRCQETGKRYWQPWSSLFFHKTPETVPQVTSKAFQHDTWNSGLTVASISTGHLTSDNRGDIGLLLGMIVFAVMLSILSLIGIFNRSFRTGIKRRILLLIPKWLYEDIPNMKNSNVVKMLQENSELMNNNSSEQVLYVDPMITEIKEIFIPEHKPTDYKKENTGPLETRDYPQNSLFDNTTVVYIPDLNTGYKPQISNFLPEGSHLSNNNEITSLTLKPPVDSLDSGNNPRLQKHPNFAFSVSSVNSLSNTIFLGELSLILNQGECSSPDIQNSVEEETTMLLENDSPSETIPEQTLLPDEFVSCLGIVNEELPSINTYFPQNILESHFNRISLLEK
Procedure: Cryopreserved peripheral blood mononuclear cells (PBMCs) from healthy donors were thawed and washed twice in ImmunoCult-XF T cell expansion medium (XF-TCEM) supplemented with CTL anti-aggregate wash. The cells were counted, resuspended at 2-6×10^5 cells per mL XF-TCEM supplemented with penicillin/streptomycin and 100 ng/mL IL-1β (BioLegend, 579404), and cultured in tissue culture flasks coated with anti-CD3 (eBioscience, 16-0037-85 or BD Pharmingen, 555329) at 37° C. in 5% CO2. On day 4 of culture, PBMCs were collected, washed twice in RPMI-1640 supplemented with 0.1% BSA (RPMI-BSA), and incubated in RPMI-BSA in upright tissue culture flasks for ˜4 hours at 37° C. in 5% CO2. Following this ‘starvation,’ a total of 6×10^4 cells in 30 μL RPMI-BSA was transferred into each well of a 384-well plate pre-spotted with peptide or DMSO. The cells were incubated for 30 minutes prior to the addition of IL-23 at a final concentration of 5 ng/mL. The cells were stimulated with cytokine for 30 minutes at 37° C. in 5% CO2, transferred onto ice for 10 minutes, and lysed. Cell lysates were stored at −80° C. until phosphorylated STAT3 was measured using the phospho-STAT panel kit (Meso Scale Discovery, K15202D).

IL-23R = molecular target: T2, IL-23R (Homo sapiens, UniProt Q5VWK5); assay: IL23R Reporter Assay; type: cell-based; conditions: HEK293 cells containing IL-23R, IL-12Rβ1 and STAT-inducible luciferase reporter; 10 ng/mL IL-23; 5 h; read-out: IC50
T2 construct: host or cells: HEK293
T2 sequence (Q5VWK5 24-629): T1 sequence (Q5VWK5 24-629)
Procedure: Compounds were serially diluted in 100% (v/v) DMSO) and plated using an Echo acoustic dispenser (Labcyte) into 1536-well non-treated black assay plates (Corning #9146). […] After 5 h at 37° C., 5% CO2, 95% relative humidity, cells were placed at 20° C. and treated with BioGlo reagent (Promega) according to the Manufacturer's instructions. Luminescence was measured on a Pherastar FSX (BMG LabTech).

Molecule: CC(=O)NCCCC[C@@H]1NC(=O)[C@H](Cc2c[nH]c3c(C)cccc23)NC(=O)[C@H]([C@@H](C)O)NC(=O)[C@H](CC(N)=O)NC(=O)[C@@H](NC(=O)[C@@H](CCCNC(=N)N)NC(C)=O)C(C)(C)SSC(C)(C)[C@@H](C(=O)N[C@@H](Cc2ccc(OCCN)cc2)C(=O)N[C@@H](Cc2ccc3cc(O)ccc3c2)C(=O)NC2(C(=O)N[C@@H](CCC(=O)O)C(=O)N[C@@H](CC(N)=O)C(=O)N[C@@H](Cc3cccnc3)C(=O)N(C)CC(=O)N[C@@H](CCCCNC(=O)COCCOCCNC(=O)COCCOCCNC(=O)CC[C@H](NC(=O)CCCCCCCCCCCCCCCCC(=O)O)C(=O)O)C(N)=O)CCOCC2)NC1=O
ring closure, yield after HPLC ([1]; from Ac-dArg-Pen-Asn-Thr-7MeTrp-Lys(Ac)-Pen-AEF-6OH2Nal-THP-Glu-Asn-3Pya-Sar-Lys(PEG2PEG2gEC18OH)-NH2, I2/MeOH, 20% MeCN/H2O, 0.857 mM): 12.1%

Molecule: MeCO-k(d)-Pen(3)-N-T-7MeW-K(Ac)-Pen(3)-AEF-6OH2Nal-THP-E-N-3Pya-Sar-CONH2
ring closure, yield after HPLC ([1]; I2/AcOH, MeCN/H2O, 2.19 mM): 31%

Molecule: CC(=O)NCCCC[C@@H]1NC(=O)[C@H](Cc2c[nH]c3c(C)cccc23)NC(=O)[C@H]([C@@H](C)O)NC(=O)[C@H](CC(N)=O)NC(=O)[C@@H](NC(C)=O)C(C)(C)SSC(C)(C)[C@@H](C(=O)N[C@@H](Cc2ccc(OCCN)cc2)C(=O)N[C@@H](Cc2ccc3cc(O)ccc3c2)C(=O)NC2(C(=O)N[C@@H](CCC(=O)O)C(=O)N[C@@H](CC(N)=O)C(=O)N[C@@H](Cc3cccnc3)C(=O)N(C)CC(=O)N[C@@H](CCCCNC(=O)COCCOCCNC(=O)COCCOCCNC(=O)CC[C@H](NC(=O)CCCCCCCCCCCCCCCCC(=O)O)C(=O)O)C(N)=O)CCOCC2)NC1=O
ring closure, yield after HPLC ([1]; from Ac-Pen-Asn-Thr-7MeTrp-Lys(Ac)-Pen-AEF-6OH2Nal-THP-Glu-Asn-3Pya-Sar-Lys(PEG2PEG2gEC18OH)-NH2, I2/MeOH, 20% MeCN/H2O, 0.82 mM): 12.9%

pIC50 [2]: 10.00 to 11.00
pIC50 (IL-23R): > 8.00
Molecule: CC(=O)NCCCC[C@@H]1NC(=O)[C@H](Cc2c[nH]c3c(C)cccc23)NC(=O)[C@H]([C@@H](C)O)NC(=O)[C@H](CC(N)=O)NC(=O)[C@@H](NC(=O)[C@@H](CCCNC(=N)N)NC(C)=O)C(C)(C)SSC(C)(C)[C@@H](C(=O)N[C@@H](Cc2ccc(OCCCCC[N+](C)(C)C)cc2)C(=O)N[C@@H](Cc2ccc3cc(O)ccc3c2)C(=O)NC2(C(=O)N[C@@H](CCC(=O)O)C(=O)N[C@@H](CC(N)=O)C(=O)N[C@@H](Cc3cccnc3)C(=O)N(C)CC(N)=O)CCOCC2)NC1=O [compound 59, MeCO-r-Pen(3)-N-T-7MeW-K(Ac)-Pen(3)-TMAPF-6OH2Nal-THP-E-N-3Pya-Sar-CONH2] (Ac-[dR][Pen]NT[Trp(7-Me)]K(Ac)[Pen]Y(X18)[2Nal(6-OH)][Thp]EN[3Pal][Sar]-NH2; disulfide 2-7)

Molecule: MeCO-Pen(3)-N(N(Me)2)-T-7MeW-Dab(NMecarn)-Pen(3)-AEF-6OH2Nal-THP-Dab(NMecarn)-N-3Pya-Sar-CON(Me)2
ring closure, yield after HPLC ([1]; I2/AcOH, MeCN/H2O, 2.09 mM): 23%
